ChEMBL document CHEMBL3046114, “Synthesis and phytotoxic activity of novel acylthiourea and 2H-1,2,4-thiadiazolo[2,3-]pyrimidine derivatives” (2012)

What follows are compounds tested on Chenopodium ficifolium (assay: Phytotoxicity against Chenopodium ficifolium germinated seed assessed as growth inhibition at 10 mg/L after 72 hr by culture dish method). Conditions: read-out: GI.
Format: functional

Row | Compound | inhibition of growth at 10 µg/mL
1 | CSc1cc(C)nc(NC(=S)NC(=O)c2c(-c3ccc(Cl)cc3Cl)noc2C)n1 | 32.8%
2 | COc1cc(Cl)nc(NC(=S)NC(=O)c2c(-c3ccc(Cl)cc3Cl)noc2C)n1 | 21.9%
3 | COc1cc(OC)nc(NC(=S)NC(=O)c2c(-c3ccc(Cl)cc3Cl)noc2C)n1 | 30.7%
4 | COc1cc(SC)nc(NC(=S)NC(=O)c2c(-c3ccc(Cl)cc3Cl)noc2C)n1 | -8.31%
5 | Cc1cc(C)n2s/c(=N\C(=O)c3c(-c4ccc(Cl)cc4Cl)noc3C)nc2n1 | 26.7%
6 | Cc1cc(O)n2s/c(=N\C(=O)c3c(-c4ccc(Cl)cc4Cl)noc3C)nc2n1 | 32.9%
7 | Cc1onc(-c2ccc(Cl)cc2Cl)c1C(=O)/N=c1/nc2nc(Cl)cc(C)n2s1 | 18.6%
8 | COc1cc(C)nc2n/c(=N/C(=O)c3c(-c4ccc(Cl)cc4Cl)noc3C)sn12 | 45.7%

Each compound was assayed on Chenopodium ficifolium (assay: Phytotoxicity against Chenopodium ficifolium germinated seed assessed as growth inhibition at 100 mg/L after 72 hr by culture dish method). Conditions: read-out: GI.
Format: functional

Row | Compound | inhibition of growth at 100 µg/mL
9 | CSc1cc(C)nc(NC(=S)NC(=O)c2c(-c3ccc(Cl)cc3Cl)noc2C)n1 | 86.1%
10 | COc1cc(Cl)nc(NC(=S)NC(=O)c2c(-c3ccc(Cl)cc3Cl)noc2C)n1 | 53.2%
11 | COc1cc(OC)nc(NC(=S)NC(=O)c2c(-c3ccc(Cl)cc3Cl)noc2C)n1 | 78.6%
12 | COc1cc(SC)nc(NC(=S)NC(=O)c2c(-c3ccc(Cl)cc3Cl)noc2C)n1 | 60.3%
13 | Cc1cc(C)n2s/c(=N\C(=O)c3c(-c4ccc(Cl)cc4Cl)noc3C)nc2n1 | 76.9%
14 | Cc1cc(O)n2s/c(=N\C(=O)c3c(-c4ccc(Cl)cc4Cl)noc3C)nc2n1 | 59.3%
15 | Cc1onc(-c2ccc(Cl)cc2Cl)c1C(=O)/N=c1/nc2nc(Cl)cc(C)n2s1 | 73.6%
16 | COc1cc(C)nc2n/c(=N/C(=O)c3c(-c4ccc(Cl)cc4Cl)noc3C)sn12 | 80.4%

These compounds were tested on Brassica napus (assay: Phytotoxicity against Brassica napus (oilseed rape) germinated seed assessed as growth inhibition at 10 mg/L after 72 hr by culture dish method). Conditions: read-out: GI.
Format: functional

Row | Compound | inhibition of growth at 10 µg/mL
17 | CSc1cc(C)nc(NC(=S)NC(=O)c2c(-c3ccc(Cl)cc3Cl)noc2C)n1 | 42.4%
18 | COc1cc(Cl)nc(NC(=S)NC(=O)c2c(-c3ccc(Cl)cc3Cl)noc2C)n1 | 30.7%
19 | COc1cc(OC)nc(NC(=S)NC(=O)c2c(-c3ccc(Cl)cc3Cl)noc2C)n1 | 35.2%
20 | COc1cc(SC)nc(NC(=S)NC(=O)c2c(-c3ccc(Cl)cc3Cl)noc2C)n1 | 18.7%
21 | Cc1cc(C)n2s/c(=N\C(=O)c3c(-c4ccc(Cl)cc4Cl)noc3C)nc2n1 | 46.3%
22 | Cc1cc(O)n2s/c(=N\C(=O)c3c(-c4ccc(Cl)cc4Cl)noc3C)nc2n1 | 38.5%
23 | Cc1onc(-c2ccc(Cl)cc2Cl)c1C(=O)/N=c1/nc2nc(Cl)cc(C)n2s1 | 20.1%
24 | COc1cc(C)nc2n/c(=N/C(=O)c3c(-c4ccc(Cl)cc4Cl)noc3C)sn12 | 26.4%

The compounds below were run on Brassica napus (assay: Phytotoxicity against Brassica napus (oilseed rape) germinated seed assessed as growth inhibition at 100 mg/L after 72 hr by culture dish method). Conditions: read-out: GI.
Format: functional

Row | Compound | inhibition of growth at 100 µg/mL
25 | CSc1cc(C)nc(NC(=S)NC(=O)c2c(-c3ccc(Cl)cc3Cl)noc2C)n1 | 73.6%
26 | COc1cc(Cl)nc(NC(=S)NC(=O)c2c(-c3ccc(Cl)cc3Cl)noc2C)n1 | 61%
27 | COc1cc(OC)nc(NC(=S)NC(=O)c2c(-c3ccc(Cl)cc3Cl)noc2C)n1 | 70.8%
28 | COc1cc(SC)nc(NC(=S)NC(=O)c2c(-c3ccc(Cl)cc3Cl)noc2C)n1 | 69.2%
29 | Cc1cc(C)n2s/c(=N\C(=O)c3c(-c4ccc(Cl)cc4Cl)noc3C)nc2n1 | 76.8%
30 | Cc1cc(O)n2s/c(=N\C(=O)c3c(-c4ccc(Cl)cc4Cl)noc3C)nc2n1 | 79.2%
31 | Cc1onc(-c2ccc(Cl)cc2Cl)c1C(=O)/N=c1/nc2nc(Cl)cc(C)n2s1 | 70.2%
32 | COc1cc(C)nc2n/c(=N/C(=O)c3c(-c4ccc(Cl)cc4Cl)noc3C)sn12 | 80.6%

Each compound was assayed on Digitaria ciliaris (assay: Phytotoxicity against Digitaria ciliaris germinated seed assessed as growth inhibition at 10 mg/L after 72 hr by culture dish method). Conditions: read-out: GI.
Format: functional

Row | Compound | inhibition of growth at 10 µg/mL
33 | CSc1cc(C)nc(NC(=S)NC(=O)c2c(-c3ccc(Cl)cc3Cl)noc2C)n1 | 26.7%
34 | COc1cc(Cl)nc(NC(=S)NC(=O)c2c(-c3ccc(Cl)cc3Cl)noc2C)n1 | 14.6%
35 | COc1cc(OC)nc(NC(=S)NC(=O)c2c(-c3ccc(Cl)cc3Cl)noc2C)n1 | 32%
36 | COc1cc(SC)nc(NC(=S)NC(=O)c2c(-c3ccc(Cl)cc3Cl)noc2C)n1 | 34.8%
37 | Cc1cc(C)n2s/c(=N\C(=O)c3c(-c4ccc(Cl)cc4Cl)noc3C)nc2n1 | 15.2%
38 | Cc1cc(O)n2s/c(=N\C(=O)c3c(-c4ccc(Cl)cc4Cl)noc3C)nc2n1 | 30.1%
39 | Cc1onc(-c2ccc(Cl)cc2Cl)c1C(=O)/N=c1/nc2nc(Cl)cc(C)n2s1 | 32.8%
40 | COc1cc(C)nc2n/c(=N/C(=O)c3c(-c4ccc(Cl)cc4Cl)noc3C)sn12 | 50.3%

The compounds below were run on Digitaria ciliaris (assay: Phytotoxicity against Digitaria ciliaris germinated seed assessed as growth inhibition at 100 mg/L after 72 hr by culture dish method). Conditions: read-out: GI.
Format: functional

Row | Compound | inhibition of growth at 100 µg/mL
41 | CSc1cc(C)nc(NC(=S)NC(=O)c2c(-c3ccc(Cl)cc3Cl)noc2C)n1 | 45.5%
42 | COc1cc(Cl)nc(NC(=S)NC(=O)c2c(-c3ccc(Cl)cc3Cl)noc2C)n1 | 62.2%
43 | COc1cc(OC)nc(NC(=S)NC(=O)c2c(-c3ccc(Cl)cc3Cl)noc2C)n1 | 65.9%
44 | COc1cc(SC)nc(NC(=S)NC(=O)c2c(-c3ccc(Cl)cc3Cl)noc2C)n1 | 55.6%
45 | Cc1cc(C)n2s/c(=N\C(=O)c3c(-c4ccc(Cl)cc4Cl)noc3C)nc2n1 | 84.9%
46 | Cc1cc(O)n2s/c(=N\C(=O)c3c(-c4ccc(Cl)cc4Cl)noc3C)nc2n1 | 72.1%
47 | Cc1onc(-c2ccc(Cl)cc2Cl)c1C(=O)/N=c1/nc2nc(Cl)cc(C)n2s1 | 68.1%
48 | COc1cc(C)nc2n/c(=N/C(=O)c3c(-c4ccc(Cl)cc4Cl)noc3C)sn12 | 80.6%

Each compound was assayed on Echinochloa crus-galli (assay: Phytotoxicity against Echinochloa crus-galli (barnyard grass) germinated seed assessed as growth inhibition at 10 mg/L after 72 hr by culture dish method). Conditions: read-out: GI.
Format: functional

Row | Compound | inhibition of growth at 10 µg/mL
49 | CSc1cc(C)nc(NC(=S)NC(=O)c2c(-c3ccc(Cl)cc3Cl)noc2C)n1 | 27.4%
50 | COc1cc(Cl)nc(NC(=S)NC(=O)c2c(-c3ccc(Cl)cc3Cl)noc2C)n1 | 18.5%
51 | COc1cc(OC)nc(NC(=S)NC(=O)c2c(-c3ccc(Cl)cc3Cl)noc2C)n1 | 21.8%
52 | COc1cc(SC)nc(NC(=S)NC(=O)c2c(-c3ccc(Cl)cc3Cl)noc2C)n1 | 19.3%
53 | Cc1cc(C)n2s/c(=N\C(=O)c3c(-c4ccc(Cl)cc4Cl)noc3C)nc2n1 | 25.2%
54 | Cc1cc(O)n2s/c(=N\C(=O)c3c(-c4ccc(Cl)cc4Cl)noc3C)nc2n1 | 30.5%
55 | Cc1onc(-c2ccc(Cl)cc2Cl)c1C(=O)/N=c1/nc2nc(Cl)cc(C)n2s1 | 25.8%
56 | COc1cc(C)nc2n/c(=N/C(=O)c3c(-c4ccc(Cl)cc4Cl)noc3C)sn12 | 30.9%

The compounds below were run on Echinochloa crus-galli (assay: Phytotoxicity against Echinochloa crus-galli (barnyard grass) germinated seed assessed as growth inhibition at 100 mg/L after 72 hr by culture dish method). Conditions: read-out: GI.
Format: functional

Row | Compound | inhibition of growth at 100 µg/mL
57 | CSc1cc(C)nc(NC(=S)NC(=O)c2c(-c3ccc(Cl)cc3Cl)noc2C)n1 | 47.1%
58 | COc1cc(Cl)nc(NC(=S)NC(=O)c2c(-c3ccc(Cl)cc3Cl)noc2C)n1 | 56.3%
59 | COc1cc(OC)nc(NC(=S)NC(=O)c2c(-c3ccc(Cl)cc3Cl)noc2C)n1 | 60.9%
60 | COc1cc(SC)nc(NC(=S)NC(=O)c2c(-c3ccc(Cl)cc3Cl)noc2C)n1 | 40.9%
61 | Cc1cc(C)n2s/c(=N\C(=O)c3c(-c4ccc(Cl)cc4Cl)noc3C)nc2n1 | 76%
62 | Cc1cc(O)n2s/c(=N\C(=O)c3c(-c4ccc(Cl)cc4Cl)noc3C)nc2n1 | 65.8%
63 | Cc1onc(-c2ccc(Cl)cc2Cl)c1C(=O)/N=c1/nc2nc(Cl)cc(C)n2s1 | 55.6%
64 | COc1cc(C)nc2n/c(=N/C(=O)c3c(-c4ccc(Cl)cc4Cl)noc3C)sn12 | 80.5%
